Source: PMC9818021, “Targets, Mechanisms and Cytotoxicity of Half-Sandwich Ir(III) Complexes Are Modulated by Structural Modifications on the Benzazole Ancillary Ligand” (Cancers, 2022)
pIC50: −log10 of the molar value.

Legend:
A549 cells [1] = experiment: Hoechst/propidium iodide staining; format: cell-based, human; conditions: 16 μM
Method: (§1) DNA damage was measured using EpiQuik 8-OHdG DNA Damage Quantification Direct Kit (colorimetric) (Fischer, Waltham, MA, USA, P600396); The mitochondrial cytochrome C release was evaluated using the “Millipore’s FlowCellect Cytochrome C Kit (Millipore, FCCH100110)”. Lactate dehydrogenase activity release was measured in the culture medium using Cytotoxicity Detection Kit (Roche Diagnostic, Barcelona, Spain, 11 644 793 001). Protein synthesis was determined using Click-iT Plus O-propargyl-puromycin (OPP) Protein Synthesis Assay Kit (Invitrogen™, Waltham, MA, USA). Measurement of GSH/GSSG was determined with GSH/GSSG-Glo Assay (Promega, V6611). Measurements of OCR and ECAR with Seahorse XFp (Agilent Technologies) were determined using the XFp Cell Mito Stress Test Kit (103010-100) and XFp Glycolysis Stress Test Kit (103017-100). ATP measurement was determined with Cell Titer-Glo Luminescent Cell Viability Assay (Promega, Madison, WI, USA, G7570). Determination of DNA damage using phosphorylated H2AX measurement were performed as previously described. Cardiolipin oxidation using the fluorophore Nonyl Acridine Orange (NAO, Thermo Scientific, A1372) was performed as described. Cell viability was determined by Hoechst inclusion and Propidium iodide (PI) exclusion by standard protocols. TEM analysis were performed as described. […]

A549 cells [2] = experiment: Cytochrome c release (FlowCellect kit); format: cell-based, human; conditions: 5 h
Method: as §1

A549 cells [3] = experiment: Viability of A549 proliferant vs quiescent cells; format: cell-based, human; conditions: 24 h
Method: Cytotoxicity. MTT Assay and IC50 estimation. The cytotoxicity of 1[C,NH-Cl], 2[C,NMe-Cl], 3[N,NH-Cl]Cl, 4[N,NMe-Cl]Cl, 5[CNH2,NH-Cl]Cl, 6[CNH2,S-Cl]Cl, 7[CO,NH-Cl] and 8[CO,S-Cl] in A2780, A2780cis, SW480 and A549 carcinoma cells was evaluated by the MTT colorimetric assay. Cells were seeded in 96-well plates at 5000 cells per well and incubated at 37 °C, 5% CO2. […] Final DMSO concentration was kept below 0.7% in wells. For a negative control, one sequence of cells was left untreated and for vehicle control, cells treated with DMSO were included. For cell viability experiments preincubating with NAC (N-Acetyl-L-Cysteine), the cells were pre-treated with NAC, 10 mM for 2 h before the incubation with complex 1[C,NH-Cl] for 24 h. Then, the medium was removed from the wells, and 100 µL MTT (5 mg/mL) was added. After an incubation time of 4 h, 100 μL of solubilizing detergent solution (SDS, 10% in HCL 0.01 M) was added and kept in the incubator overnight. Cell growth inhibition was detected by measuring the absorbance of each well at 595 nm using a BioTek Cytation5 microplate reader. Each test was repeated in quadruplicate in three independent experiments for each cell line. The percentage of survival cells was calculated using absorbance measurements compared with control and the IC50 estimation using Graph Pad Prism version 6.01.

[4] = system: gene expression (stress response, apoptosis, cell cycle genes); experiment: RT-qPCR differential gene expression; format: cell-based, human; conditions: vs. Control, 6 h after treatment
Method: (§2) Specific assays with 1[C,NH] complex were performed according to manufacturer’s instructions using the following reagents from Molecular Probes (Thermo Fisher Scientific): Measurements of ROS: Dihydroethidium (DHE, D11347) and 2′, 7′-dichlorodihydrofluorescein diacetate (H2DCFDA, D399); detection of caspases 3/7: CellEvent Caspase-3/7 Green Detection Reagent (C10423); Cell viability: Live/Dead Cell Imaging Kit (R37601); Analysis of cytosolic calcium concentration: Fluo3/AM (F23915); Analysis of MMP: Tetramethylrhodamine methyl ester perchlorate (TMRM, T668). RT-qPCR’s assays were performed with the following primers/probes from Thermo Fisher Scientific: DCP1A (Hs00218198-m1), FOSB (Hs00171851-m1), EGR1(Hs0015928-m1), ATF3 (Hs00231069-m1), DDIT3 (Hs00358796-g1), PP1R15A (Hs00169585-m1), CHAC1(Hs00225520-m1), MIR9-1 (Hs04231512-s1), ATP1B2 (Hs00155922-m1), BBC3 (Hs00248075-m1), BCL2L11 (Hs00798019-s1), PMAIP1 (Hs00560402-m1), SKP2 (Hs01021864-m1) and HIST1H1B (Hs00271207-s1). RT-qPCR experiments were performed as described.

cytosolic Ca2+ = experiment: Cytosolic calcium (Fluo3/AM); format: cell-based; conditions: 16 µM, after 4 h of incubation
Method: as §2

A549 cells [5] = experiment: Seahorse XFp Cell Mito Stress Test (OCR); format: cell-based, human; conditions: 16 µM, A549, 1 h
Method: DNA damage was measured using EpiQuik 8-OHdG DNA Damage Quantification Direct Kit (colorimetric) (Fischer, Waltham, MA, USA, P600396); The mitochondrial cytochrome C release was evaluated using the “Millipore’s FlowCellect Cytochrome C Kit (Millipore, FCCH100110)”. Lactate dehydrogenase activity release was measured in the culture medium using Cytotoxicity Detection Kit (Roche Diagnostic, Barcelona, Spain, 11 644 793 001). Protein synthesis was determined using Click-iT Plus O-propargyl-puromycin (OPP) Protein Synthesis Assay Kit (Invitrogen™, Waltham, MA, USA). Measurement of GSH/GSSG was determined with GSH/GSSG-Glo Assay (Promega, V6611). Measurements of OCR and ECAR with Seahorse XFp (Agilent Technologies) were determined using the XFp Cell Mito Stress Test Kit (103010-100) and XFp Glycolysis Stress Test Kit (103017-100). ATP measurement was determined with Cell Titer-Glo Luminescent Cell Viability Assay (Promega, Madison, WI, USA, G7570). Determination of DNA damage using phosphorylated H2AX measurement were performed as previously described. Cardiolipin oxidation using the fluorophore Nonyl Acridine Orange (NAO, Thermo Scientific, A1372) was performed as described. Cell viability was determined by Hoechst inclusion and Propidium iodide (PI) exclusion by standard protocols. TEM analysis were performed as described. Cell cycle analysis by flow cytometry and microarrays analysis were performed as described. Arrays data have been deposited in the ArrayExpress database at EMBL-EBI (www.ebi.ac.uk/arrayexpress) under accession number E-MTAB-860 (10 November 2022)

caspases 3/7 = experiment: Caspase 3/7 detection (CellEvent); format: cell-based, human; conditions: A549, 16 µM, up to 24 h
Method: as §2

A549 cells [6] = experiment: Mitochondrial membrane potential (TMRM); format: cell-based, human; conditions: 16 µM, TMRM 50 nM
Method: as §2

A549 cells [7] = experiment: ATP levels (Cell Titer-Glo); format: cell-based, human; conditions: 16 µM, 8 h incubation
Method: as §1

In the case of `Cc1c(C)c(C)[c-](C)c1C.[Cl][Ir]1[c]2ccccc2-c2[nH]c3ccccc3[n+]21` [1[C,NH], [(η^5-Cp*)IrCl(κ^2-N,C-pbim)]], the PI positive cells (A549 cells [1]) was “absent during the first 6 h of treatment”, the Cytochrome c release (A549 cells [2]) was “increased Cyt c release” and the pIC50 (A549 cells [3]; A549 non-proliferating (quiescent) condition) was 4.77. For the same molecule, the pIC50 (A549 cells [3]; A549 proliferating condition) was 5.02, the “ATF3 RT-qPCR (2-ΔΔCt)” value [4] was > 100 and the “ATP1B2 RT-qPCR (2-ΔΔCt)” value [4] was 19.5. For the same molecule, the “BBC3 RT-qPCR (2-ΔΔCt)” value [4] was 3.7, the “BCL2L11 RT-qPCR (2-ΔΔCt)” value [4] was 3.6 and the “CHAC1 RT-qPCR (2-ΔΔCt)” value [4] was 3.5. The “DDIT3 RT-qPCR (2-ΔΔCt)” value [4] was 7.8, the “EGR1 RT-qPCR (2-ΔΔCt)” value [4] was > 100 and the “FOSB RT-qPCR (2-ΔΔCt)” value [4] was > 100. The “HIST1H1B RT-qPCR (2-ΔΔCt)” value [4] was 0.1, the “MIR9-1 RT-qPCR (2-ΔΔCt)” value [4] was > 100 and the “PMAIP1 RT-qPCR (2-ΔΔCt)” value [4] was 3.4. For the same molecule, the “PPP1R15A RT-qPCR (2-ΔΔCt)” value [4] was 14.8, the “SKP2 RT-qPCR (2-ΔΔCt)” value [4] was 0.3 and the “Cytosolic Ca2+” value (cytosolic Ca2+) was “increase in cytosolic Ca^2+”. The “ATP Production, OCR, Mean” value (A549 cells [5]) was 7.77 pmol/min, the “Basal Respiration, OCR, Mean” value (A549 cells [5]) was 57.35 pmol/min and the “Coupling Efficiency, Mean” value (A549 cells [5]) was 13.65. The “Maximal Respiration, OCR, Mean” value (A549 cells [5]) was 47.24 pmol/min, the “Non-Mitochondrial Oxygen Consumption, OCR, Mean” value (A549 cells [5]) was 26.35 pmol/min and the “Proton Leak, OCR, Mean” value (A549 cells [5]) was 49.58 pmol/min. For the same molecule, the “Spare Respiratory Capacity as a %, Mean” value (A549 cells [5]) was 80.93%, the “Spare Respiratory Capacity, OCR, Mean” value (A549 cells [5]) was 0.27 pmol/min and the “Caspase 3/7 activity” value (caspases 3/7) was “induced caspase 3/7 activation”. For the same molecule, the “Mitochondrial membrane potential (MMP)” value (A549 cells [6]) was “quick and deep dissipation of MMP” and the “Decrease on ATP levels” value (A549 cells [7]) was “around 35%”.
